Source: paper PMC11212140, “Molecular Bidents with Two Electrophilic Warheads as a New Pharmacological Modality” (ACS Central Science, 2024)

Key:
Experiment in all cases: KiNativ profiling in H3255 cells
Assay type in all cases: cell-based, human
ZAK = test system: T1, ZAK; details: 2.5 µM; Lys1; WISQDKEVAVKK
T1 construct: purchased ActivX Biosciences (KiNativ)
Procedure, shortened: (§1)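 Kinase occupancy was assessed by KiNativ after intact H3255 cells were exposed to ZNL-0056 at 2.5 μM for two hours, with DMSO as the vehicle condition.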

FER = test system: T2, FER; details: 2.5 µM
T2 construct: purchased ActivX Biosciences (KiNativ)
Procedure, shortened: as §1

TLK2 = test system: T3, TLK2; details: 2.5 µM
T3 construct: purchased ActivX Biosciences (KiNativ)
Procedure, shortened: as §1

SGK = test system: T4, SGK; details: 2.5 µM
T4 construct: purchased ActivX Biosciences (KiNativ)
Procedure, shortened: as §1

GCN2 domain2 = test system: T5, GCN2 domain2; details: 2.5 µM
T5 construct: GCN2 domain2; purchased ActivX Biosciences (KiNativ)
Procedure, shortened: as §1

CK1a = test system: T6, CK1a; details: 2.5 µM; Lys2; DIKPDNFLMGIGR
T6 construct: purchased ActivX Biosciences (KiNativ)
Procedure, shortened: as §1

MAP3K2, MAP3K3 = details: 2.5 µM; Lys2; DIKGANILR
Procedure, shortened: as §1

PI4K2B = test system: T7, PI4K2B; details: 2.5 µM; ATP; SEEPYGQLNPKWTK
T7 construct: purchased ActivX Biosciences (KiNativ)
Procedure, shortened: as §1

CLK3 = test system: T8, CLK3; details: 2.5 µM
T8 construct: purchased ActivX Biosciences (KiNativ)
Procedure, shortened: as §1

PCTAIRE2, PCTAIRE3 = details: 2.5 µM; Lys1; SKLTENLVALKEIR
Procedure, shortened: as §1

RSK3 domain1 = test system: T9, RSK3 domain1; details: 2.5 µM; Lys2; DLKPENILLDEEGHIKITDFGLSK
T9 construct: RSK3 domain1; purchased ActivX Biosciences (KiNativ)
Procedure, shortened: as §1

MAPKAPK2, MAPKAPK3 = details: 2.5 µM; Lys2; DVKPENLLYTSK
Procedure, shortened: as §1

SBK = test system: T10, SBK; details: 2.5 µM; Lys2; DIKPENVLLFDR
T10 construct: purchased ActivX Biosciences (KiNativ)
Procedure, shortened: as §1

MSK2 domain1 = test system: T11, MSK2 domain1; details: 2.5 µM
T11 construct: MSK2 domain1; purchased ActivX Biosciences (KiNativ)
Procedure, shortened: as §1

MER, TYRO3 = details: 2.5 µM; Activation Loop; KIYSGDYYR
Procedure, shortened: as §1

CK1g1 = test system: T12, CK1g1; details: 2.5 µM; Lys2; DVKPENFLIGR
T12 construct: purchased ActivX Biosciences (KiNativ)
Procedure, shortened: as §1

MAP3K15, MAP3K5, MAP3K6 = details: 2.5 µM; Lys1; IAIKEIPER
Procedure, shortened: as §1

RSK2 domain1 = test system: T13, RSK2 domain1; details: 2.5 µM
T13 construct: RSK2 domain1; purchased ActivX Biosciences (KiNativ)
Procedure, shortened: as §1

IRAK1 = test system: T14, IRAK1; details: 2.5 µM; Lys2; AIQFLHQDSPSLIHGDIKSSNVLLDER
T14 construct: purchased ActivX Biosciences (KiNativ)
Procedure, shortened: as §1

MAP3K2 = test system: T15, MAP3K2; details: 2.5 µM; Lys1; ELAVKQVQFDPDSPETSKEVNALECEIQLLK
T15 construct: purchased ActivX Biosciences (KiNativ)
Procedure, shortened: as §1

MAP2K3 = test system: T16, MAP2K3; details: 2.5 µM
T16 construct: purchased ActivX Biosciences (KiNativ)
Procedure, shortened: as §1

GSK3B = test system: T17, GSK3B; details: 2.5 µM; Lys2; DIKPQNLLLDPDTAVLK
T17 construct: purchased ActivX Biosciences (KiNativ)
Procedure, shortened: as §1

LOK = test system: T18, LOK; details: 2.5 µM; Lys2; DLKAGNVLMTLEGDIR
T18 construct: purchased ActivX Biosciences (KiNativ)
Procedure, shortened: as §1

CRK7 = test system: T19, CRK7; details: 2.5 µM; Lys2; DIKCSNILLNNSGQIK
T19 construct: purchased ActivX Biosciences (KiNativ)
Procedure, shortened: as §1

RSK2 domain2 = test system: T20, RSK2 domain2; details: 2.5 µM; Lys2; DLKPSNILYVDESGNPESIR
T20 construct: RSK2 domain2; purchased ActivX Biosciences (KiNativ)
Procedure, shortened: as §1

MST2 = test system: T21, MST2; details: 2.5 µM; Lys1; ESGQVVAIKQVPVESDLQEIIK
T21 construct: purchased ActivX Biosciences (KiNativ)
Procedure, shortened: as §1

[1] = test system: ZC1/HGK, ZC2/TNIK, ZC3/MINK; details: 2.5 µM; Lys2; DIKGQNVLLTENAEVK
Procedure, shortened: as §1

FYN, SRC, YES = details: 2.5 µM; Activation Loop; QGAKFPIKWTAPEAALYGR
Procedure, shortened: as §1

IKKb = test system: T22, IKKb; details: 2.5 µM
T22 construct: purchased ActivX Biosciences (KiNativ)

[2] = Activation Loop, QEDGGVYSSSGLKQIPIK
[3] = Lys2, YLNEIKPPIIHYDLKPGNILLVNGTACGEIK
[4] = ATP Loop, YEIVGNLGEGTFGKVVECLDHAR
[5] = Lys2, FLHENQLTHTDLKPENILFVNSEFETLYNEHK
[6] = Activation Loop, LTDFGLSKESIDHEKK
[7] = Activation Loop, MCDFGISGYLVDSVAKTMDAGCKPYMAPER

Row | Compound | Inhibition (ZAK) | Inhibition (FER; [2]) | Inhibition (FER; Lys1, TSVAVKTCKEDLPQELK) | Inhibition (TLK2; Lys1, YVAVKIHQLNK) | Inhibition (TLK2; [3]) | Inhibition (SGK; Lys1, HKAEEVFYAVKVLQK) | Inhibition (SGK; Lys2, DLKPENILLDSQGHIVLTDFGLCK) | Inhibition (GCN2 domain2; Lys1, LDGCCYAVKR) | Inhibition (GCN2 domain2; Lys2, DLKPVNIFLDSDDHVK) | Inhibition (CK1a) | Inhibition (MAP3K2, MAP3K3) | Inhibition (PI4K2B) | Inhibition (CLK3; [4]) | Inhibition (CLK3; [5]) | Inhibition (PCTAIRE2, PCTAIRE3) | Inhibition (RSK3 domain1) | Inhibition (MAPKAPK2, MAPKAPK3) | Inhibition (SBK) | Inhibition (MSK2 domain1; Lys1, LYAMKVLR) | Inhibition (MSK2 domain1; Lys2, DLKLENVLLDSEGHIVLTDFGLSK) | other results
1 | C=CC(=O)Nc1cc(Nc2nccc(-c3cn(C)c4ccccc34)n2)c(OC)cc1N(C)CCN(C)C [Osimertinib, osimertinib, reference compound] | -16.3% | 28.7% | -15.4% | 25.0% | 3.9% | 13.2% | -15.1% | 3.6% | -25.4% | 12.6% | -6.6% | 26.7% | -8.7% | -18.4% | -33.1% | -9.7% | -28.4% | -14.3% | -36.1% | 5.0% | Inhibition (MER, TYRO3): 33.0%; Inhibition (CK1g1): 7.6%; Inhibition (MAP3K15, MAP3K5, MAP3K6): -10.0%; Inhibition (RSK2 domain1; [6]): -31.9%; Inhibition (RSK2 domain1; Lys1, QLYAMKVLK): 3.3%; Inhibition (IRAK1): -50.3%; Inhibition (MAP3K2): -20.3%; Inhibition (MAP2K3; [7]): -14.4%; Inhibition (MAP2K3; Lys2, DVKPSNVLINK): -14.5%; Inhibition (GSK3B): -0.3%; Inhibition (LOK): -8.3%; Inhibition (CRK7): 31.9%; Inhibition (RSK2 domain2): -16.8%; Inhibition (MST2): -13.5%; Inhibition [1]: 16.3%; Inhibition (FYN, SRC, YES): 7.8%; Inhibition (IKKb; Lys1, WHNQETGEQIAIKQCR): -16.0%; Inhibition (IKKb; Lys2, DLKPENIVLQQGEQR): -28.9%
2 | C=CC(=O)Nc1cc(C(=O)Nc2nc3cccc(C)c3n2[C@@H]2CCCCN(C(=O)C=C)C2)cs1 [ZNL-0056] | 12.1% | -11.1% | -6.4% | 15.3% | 18.3% | 12.6% | 1.7% | 0.0617% | 5.5% | 10.2% | -6.0% | -26.7% | 10.0% | 13.8% | -16.7% | 5.4% | -7.9% | 9.6% | -2.6% | 18.7% | Inhibition (MER, TYRO3): 2.6%; Inhibition (CK1g1): 16.6%; Inhibition (MAP3K15, MAP3K5, MAP3K6): -7.9%; Inhibition (RSK2 domain1; [6]): -17.5%; Inhibition (RSK2 domain1; Lys1, QLYAMKVLK): 0.2%; Inhibition (IRAK1): 21.6%; Inhibition (MAP3K2): 12.2%; Inhibition (MAP2K3; [7]): 11.1%; Inhibition (MAP2K3; Lys2, DVKPSNVLINK): -14.4%; Inhibition (GSK3B): -4.3%; Inhibition (LOK): -15.4%; Inhibition (CRK7): -9.2%; Inhibition (RSK2 domain2): 4.0%; Inhibition (MST2): -6.8%; Inhibition [1]: 9.3%; Inhibition (FYN, SRC, YES): 1.6%; Inhibition (IKKb; Lys1, WHNQETGEQIAIKQCR): 11.2%; Inhibition (IKKb; Lys2, DLKPENIVLQQGEQR): 2.0%
